According to patent US11517628B2, “Particles for spatiotemporal release of agents” (Yale University, priority 2018, dated 2022):

Tested on: bone marrow-derived dendritic cells (BMDCs)
Assay: BMDC surface marker expression by FACS
Type: cell-based, mouse
Experimental: Bone marrow-derived dendritic cells (BMDCs) were generated as described by Zanoni et al. Generation of mouse bone marrow-derived dendritic cells (BM-DCs) (2009). Briefly, bone marrow progenitor cells were isolated from the femur of C57BL/6J mouse and cultured with media containing 20 ng/ml of GM-CSF. Cells were replenished with fresh media after 5 days of culture and collected after 48 hours of media replenishment. Naïve CD4 T cells and T cells were collected from OT-II splenocytes by using naïve CD4 T cell or CD3 T cell isolation kit (STEMCELL Technologies), respectively.
When ready for flow cytometry (FACS) analysis, cells were transferred to a 96-well U-bottom plate and spun at 500 g for 5 minutes. […]
FACS was performed by either LSR-II (Becton Dickinson) or Attune NxT flow cytometer. […] All FACS data was analyzed on FlowJo software (Tree Star Inc., Ashland, Oreg.).
DCs are one of the best antigen presenting cells that express costimulatory molecules and present antigens, which are modulated by mTOR signaling and antigen processing, respectively. […] DCs from the bone marrow (BMDCs) were harvested and treated with 100 ng/ml of free RAPA or 2 μg/ml of free OVA for either 72 hours or for 24 hours and analyzed by FACS. In all following experiments, BMDCs were gated on CD11c+, live cells, and surface markers of BMDCs were analyzed by flow cytometry. […]

CO[C@H]1C[C@@H]2CC[C@@H](C)[C@@](O)(O2)C(=O)C(=O)N2CCCC[C@H]2C(=O)O[C@H]([C@H](C)C[C@@H]2CC[C@@H](O)[C@H](OC)C2)CC(=O)[C@H](C)/C=C(\C)[C@@H](O)[C@@H](OC)C(=O)[C@H](C)C[C@H](C)/C=C/C=C/C=C/1C [free RAPA, Rapamycin]
Expression of surface markers PD-L1, CD80, CD86, and MHC II (free RAPA 100 ng/ml, 72 hours compared to 24 hours): diminished expression of surface markers

B1: free OVA: Ovalbumin, the model antigen, given soluble (protein, UniProt P01012 2-386, looked up)
Ovalbumin: GSIGAASMEFCFDVFKELKVHHANENIFYCPIAIMSALAMVYLGAKDSTRTQINKVVRFDKLPGFGDSIEAQCGTSVNVHSSLRDILNQITKPNDVYSFSLASRLYAEERYPILPEYLQCVKELYRGGLEPINFQTAADQARELINSWVESQTNGIIRNVLQPSSVDSQTAMVLVNAIVFKGLWEKAFKDEDTQAMPFRVTEQESKPVQMMYQIGLFRVASMASEKMKILELPFASGTMSMLVLLPDEVSGLEQLESIINFEKLTEWTSSNVMEERKIKVYLPRMKMEEKYNLTSVLMAMGITDVFSSSANLSGISSAESLKISQAVHAAHAEINEAGREVVGSAEAGVDAASVSEEFRADHPFLFCIKHIATNAVLFFGRCVSP
Expression of surface markers PD-L1, CD80, CD86, and MHC II (free OVA 2 μg/ml, 72 hours vs 24 hours): no differences were observed
